Source: PubChem BioAssay AID182 (DTP/NCI, 2004)
Several values for one entry are separate records, joined by “and”; a condition that tells them apart may be missing. Equal values may be shown once. Inconclusive results and toxic doses are left out. Starred links: 1 amine or outer side, 2 acyl side, 3 side chain; linkers in the order of their positions; H or OH if unused. Positions of bridges follow the written chain, without caps; N, C: chain ends. Non-standard residues stand in square brackets, D forms with d. Residues, ends and D or L forms follow the SMILES beside them. Chains are numbered I, II in the order given. Actinocin(9to1) = Cc1c2oc3c(C)ccc(C(=O)[*:1])c3nc-2c(C(=O)[*:2])c(N)c1=O; aThr = C[C@H](O)[C@H](N)C(=O)O; NMeV = CN[CH](C(=O)O)C(C)C; Aze = O=C(O)[CH]1CCN1; Sar = CNCC(=O)O

System: BDF1 mice, P388/ADR leukemia ip, median survival T/C
Test: NCI In Vivo Anticancer Drug Screen. Data for tumor model P388 Leukemia resistant to Adriamycin; NSC 123127, Developed at Scr 06 and 41 (intraperitoneal) in B6D2F1 (BDF1) mice
Settings: endpoint: median survival time, higher = longer survival
Description: The antitumor activity of compounds was measured in mice bearing transplantable tumors. Survival or tumor size were measured and the results are expressed as the measurement made in the treated group (T) divided by the measurement made in the vehicle treated control group (C). The tumor model used in this assay is P388 Leukemia resistant to Adriamycin; NSC 123127, Developed at Scr 06 and 41 (intraperitoneal) in B6D2F1 (BDF1) mice

[1] = dose: 432.0 micrograms/kg/injection, schedule: Q04DX003 (ip), vehicle: saline
[2] = dose: 720.0 micrograms/kg/injection, schedule: Q04DX003 (ip), vehicle: saline

Structure (SMILES): O=c1[nH]cc(F)c(=O)[nH]1
- T/C (dose: 21.6 mg/kg/injection, schedule: Q04DX003 (ip), vehicle: saline): 150 % of control
- T/C (dose: 36.0 mg/kg/injection, schedule: Q04DX003 (ip), vehicle: saline): 174 % of control
- T/C (dose: 60.0 mg/kg/injection, schedule: Q04DX003 (ip), vehicle: saline): 192 % of control

Structure (SMILES): Cc1c2oc3c(C)ccc(C(=O)NC4C(=O)NC(C(C)C)C(=O)N5CCC5C(=O)N(C)CC(=O)N(C)C(C(C)C)C(=O)OC4C)c3nc-2c(C(=O)NC2C(=O)NC(C(C)C)C(=O)N3CCC3C(=O)N(C)CC(=O)N(C)C(C(C)C)C(=O)OC2C)c(N)c1=O (stereo not drawn) (I: TV[Aze][Sar][NMeV] / II: TV[Aze][Sar][NMeV]; ester I:1-I:C, II:1-II:C; linker I:N-II:N via Actinocin(9to1); configuration not given here)
- T/C (dose: 216.0 micrograms/kg/injection, schedule: Q01DX003 (ip), vehicle: saline + alcohol): 110 % of control
- T/C (dose: 360.0 micrograms/kg/injection, schedule: Q01DX003 (ip), vehicle: saline + alcohol): 103 % of control
- T/C (dose: 600.0 micrograms/kg/injection, schedule: Q01DX003 (ip), vehicle: saline + alcohol): 104 % of control
- T/C (dose: 1000.0 micrograms/kg/injection, schedule: Q01DX003 (ip), vehicle: saline + alcohol): 86 % of control

Structure (SMILES): Cc1c2oc3c(C)ccc(C(=O)N[C@@H]4C(=O)N[C@H](C(C)C)C(=O)N5CCC[C@H]5C(=O)N(C)CC(=O)N(C)[C@@H](C(C)C)C(=O)O[C@H]4C)c3nc-2c(C(=O)N[C@@H]2C(=O)N[C@H](C(C)C)C(=O)N3CCC[C@H]3C(=O)N(C)CC(=O)N(C)[C@@H](C(C)C)C(=O)O[C@H]2C)c(N)c1=O (I: [aThr][dV]P[Sar][NMeV] / II: [aThr][dV]P[Sar][NMeV]; ester I:1-I:C, II:1-II:C; linker I:N-II:N via Actinocin(9to1))
- T/C (dose: 0.3 mg/kg/injection, schedule: Q04DX003 (ip), vehicle: saline): 173 % of control
- T/C (dose: 108.0 micrograms/kg/injection, schedule: Q04DX003 (ip), vehicle: saline + alcohol): 111 % of control and 201 % of control
- T/C (dose: 180.0 micrograms/kg/injection, schedule: Q04DX003 (ip), vehicle: saline + alcohol): 118 % of control
- T/C (dose: 300.0 micrograms/kg/injection, schedule: Q04DX003 (ip), vehicle: saline + alcohol): 116 % of control and 117 % of control
- T/C (dose: 500.0 micrograms/kg/injection, schedule: Q04DX003 (ip), vehicle: saline + alcohol): 88 % of control

Structure (SMILES): CO[C@H](C(=O)[C@@H](O)[C@@H](C)O)[C@@H]1Cc2cc3cc(OC4CC(OC5CC(O)C(O)C(C)O5)C(O)C(C)O4)c(C)c(O)c3c(O)c2C(=O)[C@H]1OC1CC(OC2CC(OC3CC(C)(O)C(O)C(C)O3)C(O)C(C)O2)C(O)C(C)O1 (stereo partly drawn)
- T/C (dose: 0.32 mg/kg/injection, schedule: Q01DX005 (ip), vehicle: water): 91 % of control
- T/C (dose: 0.54 mg/kg/injection, schedule: Q01DX005 (ip), vehicle: water): 95 % of control
- T/C (dose: 0.65 mg/kg/injection, schedule: Q04DX003 (ip), vehicle: water): 89 % of control

Structure (SMILES): O=C(Nc1ccc(C2=NCCCN2)cc1)c1ccc(C(=O)Nc2ccc(C3=NCCCN3)cc2)cc1
- T/C (dose: 10.8 mg/kg/injection, schedule: Q04DX003 (ip), vehicle: other): 118 % of control
- T/C (dose: 30.0 mg/kg/injection, schedule: Q04DX003 (ip), vehicle: other): 94 % of control

Structure (SMILES): CC[C@]1(O)C[C@H]2CN(CCc3c([nH]c4ccccc34)[C@@](C(=O)OC)(c3cc4c(cc3OC)N(C=O)[C@H]3[C@@](O)(C(=O)OC)[C@H](OC(C)=O)[C@]5(CC)C=CCN6CC[C@]43[C@@H]65)C2)C1
- T/C (dose: 0.5 mg/kg/injection, schedule: Q04DX003 (ip), vehicle: saline): 92 % of control
- T/C (dose: 0.65 mg/kg/injection, schedule: Q04DX003 (ip), vehicle: saline): 111 % of control
- T/C (dose: 1.0 mg/kg/injection, schedule: Q04DX003 (ip), vehicle: saline): 92 % of control
- T/C (dose: 1.8 mg/kg/injection, schedule: Q04DX003 (ip), vehicle: saline): 95 % of control
- T/C (dose: 3.0 mg/kg/injection, schedule: Q04DX003 (ip), vehicle: saline): 87 % of control
- T/C (dose: 389.0 micrograms/kg/injection, schedule: Q04DX003 (ip), vehicle: saline): 109 % of control
- T/C [1]: 113 % of control
- T/C (dose: 648.0 micrograms/kg/injection, schedule: Q04DX003 (ip), vehicle: saline): 112 % of control
- T/C [2]: 107 % of control
- T/C (dose: 1080.0 micrograms/kg/injection, schedule: Q04DX003 (ip), vehicle: saline): 110 % of control
- T/C (dose: 1200.0 micrograms/kg/injection, schedule: Q04DX003 (ip), vehicle: saline): 101 % of control
- T/C (dose: 1800.0 micrograms/kg/injection, schedule: Q04DX003 (ip), vehicle: saline): 107 % of control

Structure (SMILES): CC(CN1CC(=O)NC(=O)C1)N1CC(=O)NC(=O)C1 (stereo not drawn)
- T/C (dose: 86.4 mg/kg/injection, schedule: Q04DX003 (ip), vehicle: Klucel (hydroxypropylcellulose) (HPC)): 106 % of control
- T/C (dose: 100.0 mg/kg/injection, schedule: Q04DX003 (ip), vehicle: Klucel (hydroxypropylcellulose) (HPC)): 100 % of control
- T/C (dose: 108.0 mg/kg/injection, schedule: Q04DX003 (ip), vehicle: Klucel (hydroxypropylcellulose) (HPC)): 104 % of control
- T/C (dose: 144.0 mg/kg/injection, schedule: Q04DX003 (ip), vehicle: Klucel (hydroxypropylcellulose) (HPC)): 122 % of control
- T/C (dose: 180.0 mg/kg/injection, schedule: Q04DX003 (ip), vehicle: Klucel (hydroxypropylcellulose) (HPC)): 102 % of control
- T/C (dose: 200.0 mg/kg/injection, schedule: Q04DX003 (ip), vehicle: Klucel (hydroxypropylcellulose) (HPC)): 93 % of control
- T/C (dose: 216.0 mg/kg/injection, schedule: Q04DX003 (ip), vehicle: Klucel (hydroxypropylcellulose) (HPC)): 107 % of control
- T/C (dose: 300.0 mg/kg/injection, schedule: Q04DX003 (ip), vehicle: Klucel (hydroxypropylcellulose) (HPC)): 102 % of control
- T/C (dose: 400.0 mg/kg/injection, schedule: Q04DX003 (ip), vehicle: Klucel (hydroxypropylcellulose) (HPC)): 93 % of control

Structure (SMILES): CCCCCCCC(=O)OCC(=O)[C@]1(O)Cc2c(O)c3c(c(O)c2[C@@H](OC2CC(N)C(O)C(C)O2)C1)C(=O)c1c(OC)cccc1C3=O (stereo partly drawn)
- T/C (dose: 2.88 mg/kg/injection, schedule: Q04DX003 (ip), vehicle: water): 121 % of control

Structure (SMILES): CC[C@H]1CN2CCc3cc(OC)c(OC)cc3[C@@H]2C[C@@H]1C[C@H]1NCCc2c1[nH]c1ccc(OC)cc21
- T/C (dose: 10.8 mg/kg/injection, schedule: Q04DX003 (ip), vehicle: acid diluted with saline): 108 % of control
- T/C (dose: 18.0 mg/kg/injection, schedule: Q04DX003 (ip), vehicle: acid diluted with saline): 107 % of control
- T/C (dose: 30.0 mg/kg/injection, schedule: Q04DX003 (ip), vehicle: acid diluted with saline): 110 % of control

Structure (SMILES): O=C[C@@H](CO)O[C@H](C=O)n1cnc2c(=O)[nH]cnc21
- T/C (dose: 180.0 mg/kg/injection, schedule: Q04DX003 (ip), vehicle: water): 162 % of control
- T/C (dose: 300.0 mg/kg/injection, schedule: Q04DX003 (ip), vehicle: water): 203 % of control

Structure (SMILES): COc1cccc2c1C(=O)c1c(O)c3c(c(O)c1C2=O)C[C@@](O)(C(=O)CO)C[C@@H]3OC1CC([N+](C)(C)C)C(O)C(C)O1 (stereo partly drawn)
- T/C (dose: 8.64 mg/kg/injection, schedule: Q04DX003 (ip), vehicle: water): 99 % of control
- T/C (dose: 14.4 mg/kg/injection, schedule: Q04DX003 (ip), vehicle: water): 99 % of control

Structure (SMILES): COC(=O)C[C@](O)(CCCC(C)(C)O)C(=O)O[C@@H]1C(OC)=C[C@]23CCCN2CCc2cc4c(cc2[C@H]13)OCO4
- T/C (dose: 0.72 mg/kg/injection, schedule: Q04DX003 (ip), vehicle: acid diluted with saline): 100 % of control
- T/C (dose: 1.2 mg/kg/injection, schedule: Q04DX003 (ip), vehicle: acid diluted with saline): 103 % of control
- T/C (dose: 2.0 mg/kg/injection, schedule: Q04DX003 (ip), vehicle: acid diluted with saline): 110 % of control

Structure (SMILES): CCC1(O)CC2CN(CCc3c([nH]c4ccccc34)C(C(=O)OC)(c3cc4c(cc3OC)N(C)C3C(O)(C(=O)NCCSSCCNC(=O)C5(O)C(O)C6(CC)C=CCN7CCC8(c9cc(C%10(C(=O)OC)CC%11CN(CCc%12c%10[nH]c%10ccccc%12%10)CC(O)(CC)C%11)c(OC)cc9N(C)C58)C76)C(O)C5(CC)C=CCN6CCC43C65)C2)C1 (stereo not drawn)
- T/C [1]: 111 % of control
- T/C [2]: 124 % of control
- T/C (dose: 2000.0 micrograms/kg/injection, schedule: Q04DX003 (ip), vehicle: saline): 116 % of control

Structure (SMILES): CCCCC(=O)OCC(=O)[C@]1(O)Cc2c(O)c3c(c(O)c2[C@@H](OC2CC(NC(=O)C(F)(F)F)C(O)C(C)O2)C1)C(=O)c1c(OC)cccc1C3=O (stereo partly drawn)
- T/C (dose: 13.0 mg/kg/injection, schedule: Q01DX004 (ip), vehicle: saline with Tween-80): 105 % of control
- T/C (dose: 15.1 mg/kg/injection, schedule: Q04DX003 (ip), vehicle: other): 120 % of control
- T/C (dose: 21.0 mg/kg/injection, schedule: Q01DX004 (ip), vehicle: saline with Tween-80): 113 % of control
- T/C (dose: 25.2 mg/kg/injection, schedule: Q04DX003 (ip), vehicle: other): 119 % of control
- T/C (dose: 42.0 mg/kg/injection, schedule: Q04DX003 (ip), vehicle: other): 122 % of control
- T/C (dose: 70.0 mg/kg/injection, schedule: Q04DX003 (ip), vehicle: other): 155 % of control
